Values joined by “and” are separate entries in the source; they are usually repeats but may differ in a detail not shown here. Equal entries are not always repeated.
Legend:
blood glucose levels [1] = test: Blood glucose after olanzapine minipump and zonisamide injections (Example 9); format: in vivo, Female Sprague-Dawley rats; details: rats; olanzapine 1.75 mg/day by minipump, zonisamide 26 mg/kg twice daily; 13 days after olanzapine implant, 6 days after zonisamide injections began; vehicle 92.2
Procedure: Female Sprague-Dawley rats, weighing about 235 grams at the start of the experiment were used. […] The rats were subsequently returned to their home cages after recovery. The minipumps delivered 5 μL per hour for 14 days. […] The animals were housed individually and supplied with standard laboratory chow. Food consumed and animal weights were recorded every day. […] Rats were allowed to recover after pump implantation, and then received twice daily injections of zonisamide 26 mg/kg. […] The results are shown below (Table 5).

blood glucose levels [2] = test: Insulin tolerance test, naltrexone and fluoxetine (Example 7); format: in vivo, Mice; details: for Blood glucose, 15 min / Blood glucose, 30 min / Blood glucose, 1 h / Blood glucose, 2 h / Blood glucose, Baseline: individual mice (n=3), I.P. fluoxetine 8.5 mg/kg and/or naltrexone 2.5 mg/kg; for Blood glucose, 15 min: 15 min after I.P. insulin; for Blood glucose, 30 min: 30 min after I.P. insulin; for Blood glucose, 1 h: 1 h after I.P. insulin; for Blood glucose, 2 h: 2 h after I.P. insulin; for Blood glucose, Baseline: baseline two hours post-injection, before I.P. insulin; for Effect on insulin tolerance / insulin resistance (in words): mice, fluoxetine 8.5 mg/kg, naltrexone 2.5 mg/kg I.P., compared with vehicle or either compound alone
Procedure: (§1) A baseline blood glucose determination was made two hours post-injection. Mice were then given a standard I.P. injection of insulin. Blood glucose levels were then followed for two hours (at 15 min, 30 min, 1 h and 2 h). […] Glucose levels are in mg/dl.

blood glucose levels [3] = test: Insulin tolerance test, naltrexone and bupropion, glucose AUC (Example 8); format: in vivo, mice; details: naltrexone 3 mg/kg, bupropion 50 mg/kg
Procedure: as §1
Total areas under the curve (AUC) were calculated based on glucose levels at each time point for each mouse. AUC is a summation of glucose levels observed at each time point.

## NS(=O)(=O)Cc1noc2ccccc12 [Zonisamide, zonisamide]
Blood glucose levels [1]
  Blood Glucose, Average: 117.6 mg/dL

## O=C1CC[C@@]2(O)[C@H]3Cc4ccc(O)c5c4[C@@]2(CCN3CC2CC2)[C@H]1O5 [naltrexone]
Blood glucose levels [2]
  Blood glucose, 15 min: 68 mg/dL and 62 mg/dL and 65 mg/dL
  Blood glucose, 30 min: 84 mg/dL and 82 mg/dL and 81 mg/dL
  Blood glucose, 1 h: 80 mg/dL and 127 mg/dL
  Blood glucose, 2 h: 181 mg/dL and 175 mg/dL and 186 mg/dL
  Blood glucose, Baseline: 137 mg/dL and 111 mg/dL and 134 mg/dL
  Effect on insulin tolerance / insulin resistance (in words): neither fluoxetine nor naltrexone alone had an effect on insulin tolerance

## CC(NC(C)(C)C)C(=O)c1cccc(Cl)c1 (centres unmarked) [Bupropion, bupropion]
Blood glucose levels [3]; individual mice (n=12), summation of glucose levels at each time point
  Total area under the curve (AUC) of glucose levels, each mouse: 13613 and 12038 and 9083 and 14003 and 9668 and 8003 and 8715 (2×)
Blood glucose levels [3]
  Decrease in AUC versus vehicle: 4.3%
Blood glucose levels [3]; vehicle mean=11136.2
  Mean AUC as % of vehicle AUC: 95.7%

## CNCCC(Oc1ccc(C(F)(F)F)cc1)c1ccccc1 (centres unmarked) [fluoxetine]
Blood glucose levels [2]
  Blood glucose, 15 min: 63 mg/dL and 82 mg/dL and 84 mg/dL
  Blood glucose, 30 min: 93 mg/dL and 90 mg/dL and 80 mg/dL
  Blood glucose, 1 h: 118 mg/dL and 138 mg/dL and 89 mg/dL
  Blood glucose, 2 h: 228 mg/dL and 169 mg/dL and 189 mg/dL
  Blood glucose, Baseline: 135 mg/dL and 161 mg/dL and 145 mg/dL
  Effect on insulin tolerance / insulin resistance (in words): neither fluoxetine nor naltrexone alone had an effect on insulin tolerance

## Cc1cc2c(s1)Nc1ccccc1N=C2N1CCN(C)CC1 [Olanzapine, olanzapine]
Blood glucose levels [1]
  Blood Glucose, Average: 120.4 mg/dL

Source: patent US9457005B2, “Compositions and methods for increasing insulin sensitivity” (Orexigen Therapeutics, Inc., priority 2005, dated 2016)
